{
  "source": "patent US20240390414A1",
  "about": "(priority 2023, published 2024)",
  "key": {"[1]": {"settings": "cited from earlier work"}, "[2]": {"description": "With or without one or more of the following adjuvant cofactors given one to three times daily\nI did Viome testing and must avoid some foods and take pre and pro biotics that they recommend."}, "[3]": {"system": "differentiated human derived cell lines", "settings": "glial cells activated by LPS/IFNγ or IFNγ and treated with STS; cited from earlier work"}, "[4]": {"settings": "2018 study, cited from earlier work"}, "[5]": {"system": "human microglia and astrocytes", "settings": "cited from earlier work"}, "[6]": {"settings": "corn and wheat samples; cited from earlier work"}},
  "data": [
    {"smiles": "O.O.O.O.O.O=S([O-])([O-])=S.[Na+].[Na+]", "note": "[sodium thiosulfate pentahydrate]", "values": [
      {"measurement": "treatment for calciphylaxis", "setting": "[1]; Ackermann et al. 2007", "result": "effective treatment for calciphylaxis"},
      {"measurement": "treatment for vascular calcification", "setting": "[1]; O'Neill 2008", "result": "effective treatment for vascular calcification"},
      {"measurement": "prevention of platinum-induced ototoxicity and nephrotoxicity", "setting": "[1]; Skinner 1995", "result": "effective treatment to prevent platinum-induced ototoxicity and nephrotoxicity"}
    ]},
    {"smiles": "O=S([O-])([O-])=S.[Na+].[Na+]", "note": "[STS, Sodium thiosulfate]", "values": [
      {"measurement": "changes observed (patient questionnaire comment)", "setting": "[2]; in combination with sporanox", "result": "more aware and more present"},
      {"measurement": "stimming reduced", "setting": "[2]; on day 1, one patient's comment", "result": "80-90%"},
      {"measurement": "reduction in finger flicking and finger writing stimming", "setting": "[2]; one patient's comment", "result": "30 to 40", "unit": "%"},
      {"measurement": "neuroprotection", "setting": "[3]", "result": "significant enhancement of neuroprotection"},
      {"measurement": "toxicity of deoxynivalenol (DON)", "setting": "[4]; Journal of Environmental Science and Health", "result": "reduced the toxicity"},
      {"measurement": "levels of oxidative stress and inflammation caused by DON exposure", "setting": "[4]", "result": "able to reduce the levels of oxidative stress and inflammation"},
      {"measurement": "H2S and GSH expression", "setting": "[5]", "result": "increases"},
      {"measurement": "levels of aflatoxins, ochratoxin A, and zearalenone", "setting": "[6]", "result": "significantly reduce the levels"}
    ]}
  ]
}
